We go through three molecules from patent US20100261711A1, “SELECTIVE ANTICONVULSANT AGENTS AND THEIR USES” (WiSys Technology Foundation, priority 2009, published 2010).

SMILES strings stand for the structures. Marks after values point to notes of the source that are not given here.

As usually defined, the Ki is the dissociation constant of the complex between target and ligand, obtained from inhibition or displacement. The low end stands for higher affinity, the high end for lower affinity. A word on the ED50: it is the midpoint of the dose-response relation. High values mean a need for a large dose, low ones an effect at a small dose. By TD50 is commonly meant the 50% point of the dose-response relation for the toxic effect studied. The low end stands for greater toxicity, the high end for lower toxicity.

Data set [1] concerns the target T1, GABAA/α2 (α2β3γ2 GABAA receptors) (Homo sapiens, UniProt P18507+P47869).
T1 construct: expressed in transfected cells
Description: Competitive binding assay, [3H]flunitrazepam. Conditions: Binding Affinity at GABAA/α2, αxβ3γ2, [3H]flunitrazepam competition. The gist of the method:
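Bound ligand was collected on 0.3% polyethyleneimine-pretreated GF/C filters with three ice-cold washes and quantified by liquid scintillation counting; membrane protein was determined against a BSA standard.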

Data set [2] concerns Metrazol-induced clonic seizures. Description: Subcutaneous Metrazol test (scMet), rats. In kind it is in vivo.
In the next data set the target is T2, α1β3γ2 GABAA receptors (Homo sapiens, UniProt P14867+P18507).
T2 construct: expressed in transfected cells; host or cells: Xenopus laevis oocytes injected with cRNA
Description: Voltage clamp recordings from Xenopus oocytes. In kind it is cell-based. The method, then:
The GABAA subunit selectivity of several compounds prepared as described above were determined using voltage clamp recordings from Xenopus oocytes that expressed that αxβ3γ2 GABAA receptor.
In Vitro Expression of GABAA Receptor Subunits The methods used for isolating, culturing, injecting and defolliculating of the oocytes were identical with those described by E. Sigel. […] European journal of pharmacology 1995, 289, (1), 87-95; Sigel, E.;& Baur, R., Allosteric modulation by benzodiazepine receptor ligands of the GABAA receptor channel expressed in Xenopus oocytes. J. Neurosci. 1988, 8, (1), 289-95; Sigel, E.; & Minier, F., The Xenopus oocyte: System for the study of functional expression and modulation of proteins. Molecular Nutrition & Food Research 2005, 49, (3), 228-234. Mature female Xenopus laevis (Nasco, Wis.) were anaesthetized in a bath of ice-cold 0.17% Tricain (Ethyl-m-aminobenzoate, Sigma, Mo.) before decapitation and removal of the frog ovary. Stage 5 to 6 oocytes with the follicle cell layer around them were singled out of the ovary using a platinum wire loop. […]
Voltage Clamp Recordings From Xenopus Oocytes. […] Data were digitized, recorded and measured using a Digidata 1322A data acquisition system (Axon Instruments, Union City, Calif.). […]

Data set [3] can be described thus: Toxicity (TOX), minimal motor deficit, rats. It counts as in vivo. Conditions: in vivo; Rat IP.

The molecule `C#Cc1ccc2c(c1)C(c1ccccc1F)=NCc1c(C(=O)OCC)ncn1-2` [JY-XHe-053 (15), Ethyl-8-acetyleno-6-(2′-fluorophenyl)-4H-benzo[f]imidazo[1,5-a][1,4]diazepine-3-carboxylate] gave a Ki in data set [1] of 12.3 nM. For the same molecule, the results for the ED50 in data set [2] (Rat IP) and in data set [2] (Rat PO) were 18.2 mg/kg and 23.7 mg/kg, respectively. Also, the “scMet, animals protected/tested” value in data set [2] (Rat IP, 100 mg/kg, 0.5 hr) was 3/4; in data set [2] (Rat IP, 100 mg/kg, 4.0 hr), 3/4; in data set [2] (Rat PO, 40 mg/kg, 4.0 h), 2/4^e; in data set [2] (Rat PO, 40 mg/kg, 6.0 h) it was 2/4^e; in data set [2] (Rat PO, 50 mg/kg, 0.5 h) it was 3/4; in data set [2] (Rat PO, 50 mg/kg, 1.0 h) it was 3/4. Moreover, the “scMet, animals protected/tested” value in data set [2] (Rat PO, 50 mg/kg, 2.0 h) was 1/4; in data set [2] (Rat PO, 50 mg/kg, 4.0 h) it was 4/4; in data set [2] (Rat PO, 50 mg/kg, […]), 1/4. The “efficacy at α1 (percent of control current)” value at α1β3γ2 GABAA receptors was 289%. In data set [3], this molecule registered a TD50 of 69.6 mg/kg.
Regarding `C#Cc1ccc2c(c1)C(c1ccccn1)=NCc1c(C(=O)OCC)ncn1-2` [Hz166 (106), 8-Acetylenyl-6-pyridin-2-yl-4H-benzo[f]imidazo[1,5-a][1,4]diazepine-3-carboxylic acid ethyl ester], the ED50 in data set [2] (Rat IP) stood at 35.5 mg/kg; in data set [2] (Rat PO), 98.5 mg/kg. In addition, the “scMet, animals protected/tested” value in data set [2] (Rat IP, 100 mg/kg, 0.5 hr) was 7/8; in data set [2] (Rat IP, 100 mg/kg, 4.0 hr), 5/8; in data set [2] (Rat PO, 50 mg/kg, 0.5 h), 4/4; in data set [2] (Rat PO, 50 mg/kg, 1.0 h), 2/4; in data set [2] (Rat PO, 50 mg/kg, 2.0 h) it was 1/4; in data set [2] (Rat PO, 50 mg/kg, 4.0 h) it was 0/4. Besides, the “scMet, animals protected/tested” value in data set [2] (Rat PO, 50 mg/kg, […]) is 0/4. Also, on α1β3γ2 GABAA receptors, the “efficacy at α1 (percent of control current)” value worked out at 255%. In data set [3], this molecule had a TD50 of 95.3 mg/kg.
Turning to `C#Cc1ccc2c(c1)C(c1ccccc1)=N[C@H](C)c1nnc(C)n1-2` [SH-TR-CH3 (146), (4R)-8-Ethynyl-1,4-dimethyl-6-phenyl-4H-benzo[f][1,2,4]triazolo[4,3-a][1,4]diazepine], in data set [1], the Ki came to 1530 nM.
